Measurements taken from patent US10258598B2, “Compounds for use in the prevention or treatment of cancer” ([…], priority 2014, dated 2019).

How the values were obtained:
noradrenergic neurons = conditions: Knoll et al., 1999, cited from earlier work
MAO-A = target: T1, MAO-A (Rattus norvegicus, UniProt P21396); conditions: Knoll et al., 1999; cited from earlier work
T1 construct: host or cells: animal dosed in mg/kg (in vivo)
T1 sequence (P21396 1-526): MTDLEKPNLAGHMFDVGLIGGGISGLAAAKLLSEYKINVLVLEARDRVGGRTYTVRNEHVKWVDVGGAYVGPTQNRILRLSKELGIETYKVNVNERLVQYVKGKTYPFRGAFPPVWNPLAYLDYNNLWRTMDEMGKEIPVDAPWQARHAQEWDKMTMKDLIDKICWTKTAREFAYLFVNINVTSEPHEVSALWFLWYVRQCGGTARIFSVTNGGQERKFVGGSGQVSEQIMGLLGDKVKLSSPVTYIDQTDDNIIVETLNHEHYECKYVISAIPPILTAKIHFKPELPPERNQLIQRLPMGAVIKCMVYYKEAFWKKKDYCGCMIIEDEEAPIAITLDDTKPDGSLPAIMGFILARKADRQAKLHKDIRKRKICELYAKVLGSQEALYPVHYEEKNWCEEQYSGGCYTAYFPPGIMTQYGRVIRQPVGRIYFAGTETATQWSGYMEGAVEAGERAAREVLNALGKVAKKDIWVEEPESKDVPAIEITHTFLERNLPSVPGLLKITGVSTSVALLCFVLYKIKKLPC

fibromyxosarcoma = assay: Longevity study: manifestation of subcutaneous fibromyxosarcoma (TMS effect); type: in vivo, Wistar rats; conditions: for month in which the last animal manifested the tumor / rats that manifested the tumor to the end of the 32nd month of age / rats that manifested the tumor when the group completed the 30th month of life / age at which the first animal manifested the tumor: N=40; for rats that manifested the tumor to the end of the 32nd month of age / rats that manifested the tumor when the group completed the 30th month of life: saline 20 rats; for age at which the first animal manifested the tumor: saline: 11th month; for span of time from tumor manifestation until death, versus saline: chronic treatment, One-way ANOVA (FIG. 13)
Protocol: The longevity study was performed on 200 male rats received from the breeding colony of the Semmelweis University. The rats were born at the end of February of 2010. After 2-month acclimation period the rats were divided randomly into 5 even groups. The longevity study started at the beginning of May 2010. Animals were observed until their natural deaths. The data in this study represent the changes observed until Oct. 31, 2012, since in the saline-treated group the last animal died on Oct. 31, 2012. As will be shown later a few rats in the enhancer-treated groups were still alive on Nov. 1, 2012.
During the longevity study 5 rats were housed together in polycarbonate cages (height: 18 cm; wide: 42 cm; length: 44 cm) with a stainless steel on the top. Cage bedding was renewed 3 times a week (Monday, Wednesday and Friday). Bodyweight was measured once every month. The treatment started at the end of the second month of their age. […] To avoid the mixing of the groups and individuals, saline-treated rats were signed blue from 1 to 40; D-treated rats were signed green from 1 to 80 (1-40: rats treated with 0.1 mg/kg and 41-80: rats treated with 0.001 mg/kg); B-treated rats were signed black from 1 to 80 (1-40: rats treated with 0.05 mg/kg and 41-80: rats treated with 0.0001 mg/kg).
We carefully observed the appearance of the subcutaneous tumor and followed the development of the tumor until death. Histological analysis was performed post mortem on several rats taken from each group as examples.
The subcutaneous tumors developed in the rats were measured by the two largest diameters. After sacrificing the animals, the tumors were removed, photographs were taken. Tissues were fixed immediately after removal in 10% neutral formalin (in PBS, pH7.0) for 24 hours at room temperature, dehydrated and embedded in paraffin. 3-4 micrometer thick sections were cut and stained by hematoxylin and eosin (HE) as a routine.
Significance in the performance between the groups in the shuttle box was evaluated by multi-factor analysis of variance (ANOVA). Significance regarding the span of time from tumor manifestation until death in rats and regarding aging related changes in bodyweight treated chronically with the enhancer substances was analyzed by One-way ANOVA. Statistical analysis of survival rate and tumor manifestation was performed by the Kaplan-Meier method.

lung carcinoma = assay: Longevity study on FVB/N mice: spontaneous lung carcinoma at autopsy; type: in vivo; conditions: for Number of detected lung carcinoma: 18 months, saline 3 of 4
Protocol: Five groups of mice are treated daily from sexual maturity with two different doses of
(−)-deprenyl and (−)-BPAP, respectively.
Group 2: BPAP low dose: 0.0001 mg/kg (−)-BPAP
Group 3: BPAP high dose: 0.05 mg/kg (−)-BPAP
A total of 172 mice entered the experiments. Body weight is measured bimonthly.
For monitoring, we planned to sacrifice mice from each group at 6-month, 1-year, 1.5-year and 2-year time-points; the rest of the animals are kept until spontaneous death.
The results are shown in Table 4 and on FIGS. 19 and 20. Significance levels were calculated with two-sided Chi-square test.

[1] = test system: Wistar-Logan strain of rats; conditions: cited from earlier work
mammary tumors = conditions: ThyagaRajan et al. 1998; cited from earlier work

Structure (SMILES): CCCN[C@H](CCC)Cc1cc2ccccc2o1 [(−)-BPAP, (R)-1-(benzofuran-2-yl)-2-propylamino pentane]
- concentration range of the non-specific enhancer effect relative to the specific one (noradrenergic neurons; Knoll, Miklya, Knoll B, 2002): 10 million times higher concentration range
- concentration range of the specific enhancer effect (noradrenergic neurons): femto/picomolar concentration range
- dose that blocks the activity of MAO-A (MAO-A): higher than 2 mg/kg
- tumor manifestation suppressing (TMS) effect versus saline (fibromyxosarcoma; 0.0001 mg/kg, Kaplan-Meier, P<0.001 (FIG. 12)): significantly decreased
- tumor manifestation suppressing (TMS) effect versus saline (fibromyxosarcoma; 0.0001 mg/kg, Kaplan-Meier, P<0.001 (FIG. 12), listed as BPAP): suppressed the manifestation of the fibromyxosarcoma significantly
- month in which the last animal manifested the tumor (fibromyxosarcoma; 0.0001 mg/kg): 31 month
- rats that manifested the tumor to the end of the 32nd month of age (fibromyxosarcoma; 0.0001 mg/kg): 8 rats
- rats that manifested the tumor when the group completed the 30th month of life (fibromyxosarcoma; 0.0001 mg/kg, P<0.001): 8 rats
- age at which the first animal manifested the tumor (fibromyxosarcoma; 0.0001 mg/kg): 20 month
- age at which the first animal manifested the tumor (fibromyxosarcoma; 0.0001 mg/kg, listed as BPAP): 25 month
- tumor manifestation suppressing (TMS) effect versus saline (fibromyxosarcoma; 0.05 mg/kg, Kaplan-Meier, P<0.001 (FIG. 11)): significantly decreased
- tumor manifestation suppressing (TMS) effect versus saline (fibromyxosarcoma; 0.05 mg/kg, Kaplan-Meier, P<0.001 (FIG. 11), listed as BPAP): suppressed the manifestation of the fibromyxosarcoma significantly
- month in which the last animal manifested the tumor (fibromyxosarcoma; 0.05 mg/kg): 29 month
- rats that manifested the tumor to the end of the 32nd month of age (fibromyxosarcoma; 0.05 mg/kg): 7 rats
- rats that manifested the tumor when the group completed the 30th month of life (fibromyxosarcoma; 0.05 mg/kg, P<0.001): 7 rats
- age at which the first animal manifested the tumor (fibromyxosarcoma; 0.05 mg/kg): 13 month
- span of time from tumor manifestation until death, versus saline (fibromyxosarcoma): no significant difference
- Number of detected lung carcinoma (lung carcinoma; 0.0001 mg/kg daily, 4 dissected mice): 0
- Number of detected lung carcinoma (lung carcinoma; 0.05 mg/kg daily, 4 dissected mice): 1
- manifestation of lung carcinoma (lung carcinoma; specific enhancer (extremely low) dose, 18 months daily treatment): completely prevented

Structure (SMILES): C#CCN(C)[C@H](C)Cc1ccccc1 [(−)-Deprenyl, (R)—N-methyl-N-(1-phenylpropan-2-yl)prop-2-yn-1-amine]
- rats that lived longer than the maximum lifespan ever observed in the strain ([1]; out of the 50 treated HP rats): 17 rats
- lifespan ([1]; sexually high performing (HP) rats treated for life, n=50, saline HP 151.24±1.36): 185.30±1.96 weeks
- lifespan versus saline-treated peers ([1]; sexually low performing (LP) rats treated for life, n=49, saline LP 134.58±2.29 weeks): lived significantly longer than their saline treated peers
- tumor manifestation suppressing (TMS) effect versus saline (fibromyxosarcoma; 0.001 mg/kg, Kaplan-Meier (FIG. 10)): not significant
- month in which the last animal manifested the tumor (fibromyxosarcoma; 0.001 mg/kg): 29 month
- rats that manifested the tumor to the end of the 32nd month of age (fibromyxosarcoma; 0.001 mg/kg): 15 rats
- age at which the first animal manifested the tumor (fibromyxosarcoma; 0.001 mg/kg): 12 month
- age at which the first animal manifested the tumor (fibromyxosarcoma; 0.1 mg/kg s.c. 3 times a week): 16 month
- tumor manifestation suppressing (TMS) effect versus saline (fibromyxosarcoma; 0.1 mg/kg, Kaplan-Meier, P<0.01 (FIG. 9), listed as (−)-deprenyl): significantly decreased
- tumor manifestation suppressing (TMS) effect versus saline (fibromyxosarcoma; 0.1 mg/kg, Kaplan-Meier, P<0.01 (FIG. 9), listed as Deprenyl): suppressed the manifestation of the fibromyxosarcoma significantly
- month in which the last animal manifested the tumor (fibromyxosarcoma; 0.1 mg/kg): 32 month
- rats that manifested the tumor to the end of the 32nd month of age (fibromyxosarcoma; 0.1 mg/kg): 11 rats
- rats that manifested the tumor when the group completed the 30th month of life (fibromyxosarcoma; 0.1 mg/kg, P<0.01): 11 rats
- span of time from tumor manifestation until death, versus saline (fibromyxosarcoma): no significant difference
- dose inhibiting the development of mammary tumors (mammary tumors): ≥ 0.25 mg/kg body weight
- Number of detected lung carcinoma (lung carcinoma; 0.001 mg/kg daily, 2 dissected mice): 0
- Number of detected lung carcinoma (lung carcinoma; 0.1 mg/kg daily, 4 dissected mice): 1
